# Measurements as given in publication PMC4358367, “Structural basis of diverse membrane target recognitions by ankyrins” (eLife, 2014).
# Where no end group is shown, it is not given here.
# What was measured:
# AnkG_repeats [1] = target: T1, AnkG_repeats (Rattus norvegicus, UniProt O70511); assay: ITC binding to AnkG_repeats WT; settings: deduced from site mutants and truncations
# T1 construct: thioredoxin-His6 (N); made in house; host or cells: Escherichia coli BL21 (DE3)
# T1 sequence (O70511 38-855): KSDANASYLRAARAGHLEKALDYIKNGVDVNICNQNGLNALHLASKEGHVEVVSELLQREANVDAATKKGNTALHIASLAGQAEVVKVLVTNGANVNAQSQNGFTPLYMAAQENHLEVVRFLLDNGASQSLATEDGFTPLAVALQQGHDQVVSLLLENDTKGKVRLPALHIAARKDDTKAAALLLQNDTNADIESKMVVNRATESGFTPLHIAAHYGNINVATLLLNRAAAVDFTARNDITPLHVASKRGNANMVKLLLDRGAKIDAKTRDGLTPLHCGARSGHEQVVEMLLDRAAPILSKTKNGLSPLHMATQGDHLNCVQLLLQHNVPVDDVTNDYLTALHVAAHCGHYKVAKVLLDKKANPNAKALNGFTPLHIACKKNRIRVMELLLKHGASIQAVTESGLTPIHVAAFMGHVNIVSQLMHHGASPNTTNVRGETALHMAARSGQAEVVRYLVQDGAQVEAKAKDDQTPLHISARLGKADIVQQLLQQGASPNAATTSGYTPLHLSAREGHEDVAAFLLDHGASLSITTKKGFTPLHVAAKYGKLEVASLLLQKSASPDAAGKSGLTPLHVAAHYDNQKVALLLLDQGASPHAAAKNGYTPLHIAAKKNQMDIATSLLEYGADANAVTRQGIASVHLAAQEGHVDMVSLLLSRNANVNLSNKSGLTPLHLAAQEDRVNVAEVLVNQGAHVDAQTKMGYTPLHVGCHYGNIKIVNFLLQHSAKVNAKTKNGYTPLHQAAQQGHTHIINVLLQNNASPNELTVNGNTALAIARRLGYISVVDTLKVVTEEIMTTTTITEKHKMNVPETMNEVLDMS
# Excerpt: (§1) The coding sequences of AnkB_repeats (residues 28–873) were PCR amplified using the full-length human 220 kDa AnkB as the template. The coding sequences of the AnkR constructs, including AnkR_repeats (residues 42–853), and the full length AnkR C-terminal domain (residues 1529–1907), were PCR amplified from a mouse muscle cDNA library. The coding sequence of AnkG_repeats (residues 38–855) were PCR amplified using the full-length rat 190 kDa AnkG as the template. The fusion construct of AnkR_AS and AnkB_repeats was made by standard two-step PCR with a coding sequence of thrombin recognition residues ‘GSLVPRGS’ as the linker. This construct was used to crystallize and determine the complex structure. The same strategy was used in making other fusion constructs, including the Nav1.2_ABD-C/AnkB_repeats_R1–9 fusion construct containing residues 1103–1129 from mouse Nav1.2 and human AnkB residues 28–318 followed by a capping sequence corresponding to the αB of R24 (residues 814–822) and the AnkR_AS/AnkG_repeats fusion construct. For truncation mutations of ANK repeats constructs, the same capping sequence was added to the appropriate region of the C-terminus of each construct for protein stabilization. Mouse Nav1.2 (NP_001092768.1) and mouse neurofascin (CAD65849.1) were used here for studying their interaction with ankyrins. Peptides for mouse KCNQ2 (NP_034741.2, residues 826–845) and mouse Cav1.3 (NP_083257.2, residues 2134–2166) were commercially synthesized. For simplicity, we used human 220 kDa AnkB for the amino acid numbering throughout the manuscript. For the corresponding point mutations made on AnkG_repeats, each residue number should be increased by 10. All point mutations were created using the Quick Change site-directed mutagenesis kit and confirmed by DNA sequencing. […]
# (§2) Isothermal titration calorimetry (ITC) measurements were carried out on a VP-ITC MicroCal calorimeter (MicroCal, Northampton, MA) at 25°C. […] The titration data were analyzed using the program Origin 7.0 and fitted by the one-site binding model.
# AnkG_repeats F131,F164Q = target: T2, AnkG_repeats F131,F164Q (Rattus norvegicus, UniProt O70511, F141Q/F174Q); assay: ITC binding to AnkG_repeats FF mutant (site 1); settings: in words
# T2 construct: thioredoxin-His6 (N); made in house; host or cells: Escherichia coli BL21 (DE3)
# Excerpt: (§3) We next examined the interactions of AnkG_repeats with Nav1.2 and Nfasc using the structure of the ANK repeats/AS complex to design mutations specifically affecting each predicted site. […] To probe the binding sites of Nav1.2 and Nfasc on AnkG, we constructed AnkG_repeat mutants with the corresponding hydrophobic residues in binding site 1 (Phe131 and Phe164 in R4 and R5, termed ‘FF’), site 2 (Ile267 and Leu300 in R8 and R9; ‘IL’), and site 3 (Leu366, Phe399, and Leu432 in R11, R12, and R13; ‘LFL’) substituted with Gln (Figure 3D), and examined their binding to the two targets. […] The mutations in site 3 weakened ANK repeat binding to both targets (Figure 3F, Figure 3—figure supplement 3 and Figure 3—figure supplement 4). […] This conclusion is further supported by the binding of the two targets to various AnkG_repeat truncation mutants (Figure 3F, Figure 3—figure supplement 3 and Figure 3—figure supplement 4).
# (§4) The coding sequences of AnkB_repeats (residues 28–873) were PCR amplified using the full-length human 220 kDa AnkB as the template. […]
# as §2
# AnkG_repeats I267,L300Q = target: T3, AnkG_repeats I267,L300Q (Rattus norvegicus, UniProt O70511, I277Q/L310Q); assay: ITC binding to AnkG_repeats IL mutant (site 2); settings: in words
# T3 construct: thioredoxin-His6 (N); made in house; host or cells: Escherichia coli BL21 (DE3)
# Excerpt: as §3, §4, §2
# [2] = target: T4, AnkG_repeats L366,F399,L432Q (Rattus norvegicus, UniProt O70511, F409Q/L376Q/L442Q); assay: ITC binding to AnkG_repeats LFL mutant (site 3); settings: in words
# T4 construct: thioredoxin-His6 (N); made in house; host or cells: Escherichia coli BL21 (DE3)
# Excerpt: as §3, §4, §2
# AnkG_repeats [3] = target: T1, AnkG_repeats; assay: Analytical gel filtration of AS-AnkG_repeats fusion with Nav1.2 or Nfasc ABD; format: binding; settings: Superose 12 10/300 GL, 50 mM Tris, 100 mM NaCl, 1 mM EDTA, 1 mM DTT, pH 7.5
# Excerpt: as §1, with “ankyrins.” for “ankyrins. Peptides for mouse KCNQ2 (NP_034741.2, residues 826–845) and mouse Cav1.3 (NP_083257.2, residues 2134–2166) were commercially synthesized. For simplicity, we used human 220 kDa AnkB for the amino acid numbering throughout the manuscript. For the corresponding point mutations made on AnkG_repeats, each residue number should be increased by 10. All point mutations were created using the Quick Change site-directed mutagenesis kit and confirmed by DNA sequencing.”
# AnkR_repeats = target: T5, AnkR_repeats (Mus musculus, UniProt Q02357); assay: ITC binding to AnkR_repeats; settings: VP-ITC, 25°C, 50 mM Tris, 100 mM NaCl, 1 mM EDTA, 1 mM DTT, pH 7.5, one-site binding model, ND = no detectable binding
# T5 construct: thioredoxin-His6 (N); made in house; host or cells: Escherichia coli BL21 (DE3)
# Excerpt: (§5) The coding sequences of AnkB_repeats (residues 28–873) were PCR amplified using the full-length human 220 kDa AnkB as the template. The coding sequences of the AnkR constructs, including AnkR_repeats (residues 42–853), and the full length AnkR C-terminal domain (residues 1529–1907), were PCR amplified from a mouse muscle cDNA library. The coding sequence of AnkG_repeats (residues 38–855) were PCR amplified using the full-length rat 190 kDa AnkG as the template. The fusion construct of AnkR_AS and AnkB_repeats was made by standard two-step PCR with a coding sequence of thrombin recognition residues ‘GSLVPRGS’ as the linker. This construct was used to crystallize and determine the complex structure. The same strategy was used in making other fusion constructs, including the Nav1.2_ABD-C/AnkB_repeats_R1–9 fusion construct containing residues 1103–1129 from mouse Nav1.2 and human AnkB residues 28–318 followed by a capping sequence corresponding to the αB of R24 (residues 814–822) and the AnkR_AS/AnkG_repeats fusion construct. […]
# as §2
# AnkB_repeats WT = target: T6, AnkB_repeats WT (Homo sapiens, UniProt Q01484); assay: Fluorescence polarization binding to AnkB_repeats WT; settings: deduced from ANK repeats WT and site mutants
# T6 construct: thioredoxin-His6 (N); made in house; host or cells: Escherichia coli BL21 (DE3)
# T6 sequence (Q01484 28-873 isoform Q01484-2): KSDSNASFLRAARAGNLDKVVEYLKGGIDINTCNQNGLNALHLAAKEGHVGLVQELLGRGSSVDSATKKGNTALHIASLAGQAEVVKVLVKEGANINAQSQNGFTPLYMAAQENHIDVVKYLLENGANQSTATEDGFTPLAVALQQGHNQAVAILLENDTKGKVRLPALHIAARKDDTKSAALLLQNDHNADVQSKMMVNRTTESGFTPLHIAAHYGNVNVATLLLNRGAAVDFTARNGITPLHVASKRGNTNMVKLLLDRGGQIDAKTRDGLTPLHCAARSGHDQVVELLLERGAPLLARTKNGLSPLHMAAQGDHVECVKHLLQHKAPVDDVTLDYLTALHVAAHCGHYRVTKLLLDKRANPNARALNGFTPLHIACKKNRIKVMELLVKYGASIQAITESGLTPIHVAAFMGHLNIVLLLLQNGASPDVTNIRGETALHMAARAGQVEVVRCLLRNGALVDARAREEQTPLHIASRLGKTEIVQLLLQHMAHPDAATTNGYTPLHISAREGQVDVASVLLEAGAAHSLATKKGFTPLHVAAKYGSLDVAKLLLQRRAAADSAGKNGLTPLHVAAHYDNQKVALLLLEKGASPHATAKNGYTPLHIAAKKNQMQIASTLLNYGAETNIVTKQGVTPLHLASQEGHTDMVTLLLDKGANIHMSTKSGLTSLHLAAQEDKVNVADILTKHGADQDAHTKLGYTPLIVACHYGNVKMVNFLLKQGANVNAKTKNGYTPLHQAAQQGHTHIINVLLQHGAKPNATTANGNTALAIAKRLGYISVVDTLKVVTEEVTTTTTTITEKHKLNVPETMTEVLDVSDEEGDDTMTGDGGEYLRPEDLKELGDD
# Excerpt: as §5, with “construct. For truncation mutations of ANK repeats constructs, the same capping sequence was added to the appropriate region of the C-terminus of each construct for protein stabilization.” for “construct.”
# Fluorescence assays were performed on a PerkinElmer LS-55 fiuorimeter equipped with an automated polarizer at 25°C. […]
# AnkG R1-6 = target: T7, AnkG R1-6 (Rattus norvegicus, UniProt O70511, DEL222-823); assay: ITC binding to AnkG R1-6 truncation; settings: 25°C, pH 7.5, one-site binding model
# T7 construct: thioredoxin-His6 (N); made in house; host or cells: Escherichia coli BL21 (DE3)
# Excerpt: as §5, §2
# T5 sequence (Q02357 5-816): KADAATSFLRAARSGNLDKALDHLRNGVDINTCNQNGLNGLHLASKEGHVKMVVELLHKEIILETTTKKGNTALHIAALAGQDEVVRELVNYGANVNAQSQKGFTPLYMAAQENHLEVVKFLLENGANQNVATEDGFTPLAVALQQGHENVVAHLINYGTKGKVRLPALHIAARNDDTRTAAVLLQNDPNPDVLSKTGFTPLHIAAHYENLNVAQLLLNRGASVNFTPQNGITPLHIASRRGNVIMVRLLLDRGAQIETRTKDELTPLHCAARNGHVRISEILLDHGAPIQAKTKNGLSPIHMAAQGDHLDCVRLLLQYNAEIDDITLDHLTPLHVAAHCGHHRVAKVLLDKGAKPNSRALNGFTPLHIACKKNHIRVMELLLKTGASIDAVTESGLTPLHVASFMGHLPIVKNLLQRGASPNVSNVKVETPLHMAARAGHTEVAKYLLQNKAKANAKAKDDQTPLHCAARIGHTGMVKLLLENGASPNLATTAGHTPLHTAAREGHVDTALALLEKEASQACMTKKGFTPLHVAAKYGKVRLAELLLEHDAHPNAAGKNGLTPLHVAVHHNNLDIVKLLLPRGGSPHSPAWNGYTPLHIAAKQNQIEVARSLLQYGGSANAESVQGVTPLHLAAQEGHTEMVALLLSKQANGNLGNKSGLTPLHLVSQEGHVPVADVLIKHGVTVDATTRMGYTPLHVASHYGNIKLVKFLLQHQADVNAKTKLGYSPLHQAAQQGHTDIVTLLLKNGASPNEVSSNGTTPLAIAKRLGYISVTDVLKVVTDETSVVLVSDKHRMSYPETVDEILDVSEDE
# T4 sequence (O70511 38-855 L376Q/F409Q/L442Q): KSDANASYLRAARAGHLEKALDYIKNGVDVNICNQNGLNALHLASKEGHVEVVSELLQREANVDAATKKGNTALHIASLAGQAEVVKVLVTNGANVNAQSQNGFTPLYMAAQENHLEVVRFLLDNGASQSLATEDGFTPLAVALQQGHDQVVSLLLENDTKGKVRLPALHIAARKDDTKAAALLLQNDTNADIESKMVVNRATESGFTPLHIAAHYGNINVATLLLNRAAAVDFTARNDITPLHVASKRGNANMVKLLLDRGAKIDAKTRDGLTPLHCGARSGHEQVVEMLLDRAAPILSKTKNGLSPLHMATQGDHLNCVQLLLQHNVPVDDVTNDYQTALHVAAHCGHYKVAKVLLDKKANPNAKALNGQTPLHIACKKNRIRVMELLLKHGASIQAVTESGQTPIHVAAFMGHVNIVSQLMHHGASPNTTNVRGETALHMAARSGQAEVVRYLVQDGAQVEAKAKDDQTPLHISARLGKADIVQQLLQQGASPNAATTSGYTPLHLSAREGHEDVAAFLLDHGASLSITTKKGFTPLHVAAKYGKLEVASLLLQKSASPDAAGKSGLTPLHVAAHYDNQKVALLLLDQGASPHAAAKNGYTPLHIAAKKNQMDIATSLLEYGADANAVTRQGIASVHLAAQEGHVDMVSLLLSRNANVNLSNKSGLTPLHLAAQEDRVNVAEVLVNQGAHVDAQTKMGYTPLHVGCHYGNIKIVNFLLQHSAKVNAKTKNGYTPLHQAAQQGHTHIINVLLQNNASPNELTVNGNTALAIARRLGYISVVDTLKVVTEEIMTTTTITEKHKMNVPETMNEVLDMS
# T3 sequence (O70511 38-855 I277Q/L310Q): as the sequence (O70511 38-855 L376Q/F409Q/L442Q) above, with I240Q, L273Q, Q339L, Q372F, Q405L counted along it
# T2 sequence (O70511 38-855 F141Q/F174Q): as the sequence (O70511 38-855 L376Q/F409Q/L442Q) above, with F104Q, F137Q, Q339L, Q372F, Q405L counted along it
# T7 sequence (O70511 with tags, fused parts or gaps DEL222-823 limits assumed): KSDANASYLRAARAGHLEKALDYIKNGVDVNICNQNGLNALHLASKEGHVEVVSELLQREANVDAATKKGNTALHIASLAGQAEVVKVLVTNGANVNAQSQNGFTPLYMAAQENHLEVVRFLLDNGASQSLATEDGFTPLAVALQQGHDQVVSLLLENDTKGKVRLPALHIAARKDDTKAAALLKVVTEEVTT
substance,measurement,setting,value
SDDSLVDYGEGGEGQFNEDGSFIGQYTV [Nfasc_ABD],ANK repeat sites used for binding,AnkG_repeats [1],sites 2 and 3
same,effect of site 1 mutations on binding,"AnkG_repeats F131,F164Q",no impact
same,effect of site 2 mutations on binding,"AnkG_repeats I267,L300Q",significantly weakened
same,effect of site 3 mutations on binding,[2],weakened
same,complex formation with AS-AnkG_repeats fusion protein,AnkG_repeats [3],No complex peaks formed
CADQYWNEVAVIDAIPLAATEHDTMLEMSDMQVWSAGLTPSLVTAEDS [AnkR_AS],Kd,AnkR_repeats,360 ± 20 nM
"FITC-Cav1.3 peptide: mouse Cav1.3 (NP_083257.2, residues 2134–2166), commercially synthesized (NGDMGPISHRQDYELQDFGPGYSDEEPDPGREE; also: FITC label; UniProt Q99246 2134-2166, looked up, fragment)",ANK repeat sites used for binding,AnkB_repeats WT,primarily relies on site 2
TVTVPIAVGESDFENLNTEEFSSESDM [ABD-C (1103 - 1129)],Kd,AnkG R1-6,2300 ± 200 nM
